Molecular target: T1, human TLR8 (Homo sapiens, UniProt Q9NR97)
T1 sequence (Q9NR97 27-1041): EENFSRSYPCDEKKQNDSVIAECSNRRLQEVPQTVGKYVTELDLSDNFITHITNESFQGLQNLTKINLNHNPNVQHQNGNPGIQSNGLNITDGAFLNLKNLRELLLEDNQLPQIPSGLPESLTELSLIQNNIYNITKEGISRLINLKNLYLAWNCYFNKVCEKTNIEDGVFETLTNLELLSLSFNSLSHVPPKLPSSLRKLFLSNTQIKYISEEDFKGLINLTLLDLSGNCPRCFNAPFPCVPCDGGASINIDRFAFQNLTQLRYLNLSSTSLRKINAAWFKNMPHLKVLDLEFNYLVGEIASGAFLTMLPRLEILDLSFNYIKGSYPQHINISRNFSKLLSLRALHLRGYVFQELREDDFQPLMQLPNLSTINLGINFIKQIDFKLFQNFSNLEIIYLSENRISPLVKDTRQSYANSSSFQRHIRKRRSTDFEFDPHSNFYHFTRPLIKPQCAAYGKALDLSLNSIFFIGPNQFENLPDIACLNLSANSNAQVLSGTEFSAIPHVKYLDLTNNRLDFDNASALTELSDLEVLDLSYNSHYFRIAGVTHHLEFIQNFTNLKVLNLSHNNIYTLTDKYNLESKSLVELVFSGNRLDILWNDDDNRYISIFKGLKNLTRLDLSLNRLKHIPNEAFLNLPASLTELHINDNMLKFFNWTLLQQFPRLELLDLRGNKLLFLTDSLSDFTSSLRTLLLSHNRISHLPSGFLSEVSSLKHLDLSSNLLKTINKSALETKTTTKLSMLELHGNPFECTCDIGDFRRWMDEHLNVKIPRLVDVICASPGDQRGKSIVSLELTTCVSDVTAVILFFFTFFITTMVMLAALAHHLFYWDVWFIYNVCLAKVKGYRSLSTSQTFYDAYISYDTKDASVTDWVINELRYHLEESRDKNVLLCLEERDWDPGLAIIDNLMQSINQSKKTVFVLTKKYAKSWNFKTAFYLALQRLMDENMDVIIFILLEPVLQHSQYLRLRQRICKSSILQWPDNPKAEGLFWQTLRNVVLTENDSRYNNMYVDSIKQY
Assay: HEK293-Blue-hTLR-8 cells assay
Format: cell-based
Conditions: HEK293-Blue-hTLR8 cells, R848 stimulation, 20 hrs, SEAP reporter; read-out: HEK/hTLR8 IC50
Text: HEK293-Blue-hTLR-8 cells assay:
A stable HEK293-Blue-hTLR-8 cell line was purchased from InvivoGen (Cat. #: hkb-htlr8, San Diego, California, USA). These cells were originally designed for studying the stimulation of human TLR8 by monitoring the activation of NF-κB. A SEAP (secreted embryonic alkaline phosphatase) reporter gene was placed under the control of the IFN-β minimal promoter fused to five NF-κB and AP-1-binding sites. The SEAP was induced by activating NF-κB and AP-1 via stimulating HEK-Blue hTLR8 cells with TLR8 ligands. Therefore the reporter expression was declined by TLR8 antagonist under the stimulation of a ligand, such as R848, for incubation of 20 hrs. The cell culture supernatant SEAP reporter activity was determined using QUANTI-Blue™kit (Cat. #: rep-qb1, Invivogen, San Diego, Ca, USA) at a wavelength of 640 nm, a detection medium that turns purple or blue in the presence of alkaline phosphatase.
HEK293-Blue-hTLR8 cells were incubated at a density of 250,000˜450,000 cells/mL in a volume of 170 μL in a 96-well plate in Dulbecco's Modified Eagle's medium (DMEM) containing 4.5 g/L glucose, 50 U/mL penicillin, […], […], 2 mM L-glutamine, 10% (v/v) heat-inactivated fetal bovine serum with addition of 20 μL test compound in a serial dilution in the presence of final DMSO at 1% and 10 μL of 60 uM R848 in above DMEM, perform incubation under 37° C. in a CO2 incubator for 20 hrs. Then 20 μL of the supernatant from each well was incubated with 180 μL Quanti-blue substrate solution at 37° C. for 2 hrs and the absorbance was read at 620-655 nm using a spectrophotometer. The signaling pathway that TLR8 activation leads to downstream NF-κB activation has been widely accepted, and therefore similar reporter assay was modified for evaluating TLR8 antagonist.

Compound | IC50
C[C@@H]1CN(c2ccc(C#N)n3ncc(F)c23)C[C@H](CN2CC3(C2)OCc2cc(N4CC(C)(N)C4)ccc23)O1 [Example 1, 4-[(2S,6R)-2-[[6-(3-amino-3-methyl-azetidin-1-yl)spiro[1H-isobenzofuran-3,3′-azetidine]-1′-yl]methyl]-6-methyl-morpholin-4-yl]-3-fluoro-pyrazolo[1,5-a]pyridine-7-carbonitrile] | 82 nM
C[C@@H]1CN(c2ccc(C#N)n3ncc(F)c23)C[C@H](CN2CC3(C2)OCc2cc(N4CCNCC4)ccc23)O1 [Example 6, 3-fluoro-4-[(2R,6S)-2-methyl-6-[(6-piperazin-1-ylspiro[1H-isobenzofuran-3,3′-azetidine]-1′-yl)methyl]morpholin-4-yl]pyrazolo[1,5-a]pyridine-7-carbonitrile] | 24 nM
C[C@@H]1CN(c2ccc(C#N)n3nccc23)C[C@H](CN2CC3(C2)OCc2cc(N4CC5(CNCCO5)C4)ccc23)O1 [Example 7, 4-[(2R,6S)-2-methyl-6-[[6-(5-oxa-2,8-diazaspiro[3.5]nonan-2-yl)spiro[1H-isobenzofuran-3,3′-azetidine]-1′-yl]methyl]morpholin-4-yl]pyrazolo[1,5-a]pyridine-7-carbonitrile] | 58 nM
C[C@@H]1CN(c2ccc(C#N)n3ncc(F)c23)C[C@H](CN2CC3(C2)OCc2cc(N4C[C@H](N)[C@@H](O)C4)ccc23)O1 [Example 10, 4-[(2S,6R)-2-[[6-[(3S,4S)-3-amino-4-hydroxy-pyrrolidin-1-yl]spiro[1H-isobenzofuran-3,3′-azetidine]-1′-yl]methyl]-6-methyl-morpholin-4-yl]-3-fluoro-pyrazolo[1,5-a]pyridine-7-carbonitrile] | 142 nM

Further compounds by falling IC50, results first:

IC50 | Compound
51 nM | C[C@@H]1CN(c2ccc(C#N)n3ncc(F)c23)C[C@H](CN2CC3(C2)OCc2cc(N[C@H]4CNC[C@H]4F)ccc23)O1 [Example 3, 3-fluoro-4-[(2S,6R)-2-[[6-[[(3S,4R)-4-fluoropyrrolidin-3-yl]amino]spiro[1H-isobenzofuran-3,3′-azetidine]-1′-yl]methyl]-6-methyl-morpholin-4-yl]pyrazolo[1,5-a]pyridine-7-carbonitrile]
45 nM | C[C@@H]1CN(c2ccc(C#N)n3ncc(F)c23)C[C@H](CN2CC3(C2)OCc2cc(N4CC(N)C4)ccc23)O1 [Example 9, 4-[(2S,6R)-2-[[6-(3-aminoazetidin-1-yl)spiro[1H-isobenzofuran-3,3′-azetidine]-1′-yl]methyl]-6-methyl-morpholin-4-yl]-3-fluoro-pyrazolo[1,5-a]pyridine-7-carbonitrile]
35 nM | C[C@@H]1CN(c2ccc(C#N)n3ncc(F)c23)C[C@H](CN2CC3(C2)OCc2cc(N4CC5(CNCCO5)C4)ccc23)O1 [Example 4, 3-fluoro-4-[(2R,6S)-2-methyl-6-[[6-(5-oxa-2,8-diazaspiro[3.5]nonan-2-yl)spiro[1H-isobenzofuran-3,3′-azetidine]-1′-yl]methyl]morpholin-4-yl]pyrazolo[1,5-a]pyridine-7-carbonitrile]
25 nM | C[C@@H]1CN(c2ccc(C#N)n3ncc(F)c23)C[C@H](CN2CC3(C2)OCc2cc(N4CC5(CN(C)C5)C4)ccc23)O1 [Example 2, 3-fluoro-4-[(2R,6S)-2-methyl-6-[[6-(6-methyl-2,6-diazaspiro[3.3]heptan-2-yl)spiro[1H-isobenzofuran-3,3′-azetidine]-1′-yl]methyl]morpholin-4-yl]pyrazolo[1,5-a]pyridine-7-carbonitrile]
22 nM | C[C@@H]1CN(c2ccc(C#N)n3ncc(F)c23)C[C@H](CN2CC3(C2)OCc2cc(N4CC[C@](C)(N)C4)ccc23)O1 [Example 5, 4-[(2S,6R)-2-[[6-[(3S)-3-amino-3-methyl-pyrrolidin-1-yl]spiro[1H-isobenzofuran-3,3′-azetidine]-1′-yl]methyl]-6-methyl-morpholin-4-yl]-3-fluoro-pyrazolo[1,5-a]pyridine-7-carbonitrile]
